Activity calls are given as the source filed them. No cut-off for these calls is given here.
What was measured:
[1] = tested on: HeLa S3; assay: Cytotoxicity against human HeLa S3 cells assessed as reduction in cell viability measured after 96 hrs by MTT assay; type: functional, cell-based; details: HeLa S3, 96 h
[2] = Binding affinity to streptavidin immobilized actin (unknown origin) assessed as off rate constant by SPR analysis; set-up: species or system Homo sapiens
[3] = organism: Homo sapiens; assay: Binding affinity to streptavidin immobilized actin (unknown origin) assessed as on rate constant by SPR analysis
[4] = Binding affinity to streptavidin immobilized actin (unknown origin) assessed as dissociation constant by SPR analysis; set-up: species or system Homo sapiens
[5] = target: Actin, alpha skeletal muscle (Oryctolagus cuniculus, UniProt P68135); assay: Induction of rabbit skeletal muscle actin depolymerization measured after 120 mins by fluorescence assay
[6] = organism: Homo sapiens; assay: Inhibition of aplyronine A-actin complex-tubulin (unknown origin) protein-protein interaction at 1 equivalent by SPR analysis
[7] = organism: Homo sapiens; assay: Induction of aplyronine A-actin complex-tubulin (unknown origin) protein-protein interaction assessed as association of actin-aplyronine A-tubulin complex by SPR analysis
[8] = organism: Homo sapiens; assay: Induction of aplyronine A-actin complex-tubulin (unknown origin) protein-protein interaction assessed as actin-aplyronine A-tubulin ternary complex formation by SPR analysis
[9] = Binding affinity to actin (unknown origin) assessed as off rate constant for actin-compound-tubulin heterodimer complex; set-up: species or system Homo sapiens
[10] = organism: Homo sapiens; assay: Binding affinity to actin (unknown origin) assessed as dissociation constant for actin-compound-tubulin heterodimer complex at 8 degreeC
[11] = organism: Homo sapiens; assay: Binding affinity to actin (unknown origin) assessed as on rate constant for actin-compound-tubulin heterodimer complex
[12] = organism: Homo sapiens; assay: Binding affinity to actin (unknown origin) assessed as 1:1:1 ratio of actin-compound-tubulin heterodimer complex formation by measuring peak time in presence of 9:1 ratio of native/biotinylated tubulin by gel permeation HPLC analysis
[13] = organism: Homo sapiens; assay: Binding affinity to actin (unknown origin) assessed as thermal stability of actin-compound-immobilized tubulin heterodimer complex
[14] = Binding affinity to actin (unknown origin) assessed as dissociation constant for actin-compound-tubulin heterodimer complex at 25 degreeC; set-up: species or system Homo sapiens
[15] = organism: Homo sapiens; assay: Binding affinity to actin (unknown origin) assessed as 1:1:1 ratio of actin-compound-tubulin heterodimer complex formation by measuring molecular weight in presence of 9:1 ratio of native/biotinylated tubulin by gel permeation HPLC analysis
[16] = organism: Homo sapiens; assay: Induction of microtubule (unknown origin) depolymerization pretreated with paclitaxel followed by compound treatment measured after 1 hr in presence of native and biotinylated tubulin and actin by ultracentrifugation
[17] = organism: Homo sapiens; assay: Binding affinity to actin (unknown origin) assessed as thermal stability of actin-compound-tubulin heterodimer complex at 25 degreeC
[18] = organism: Homo sapiens; assay: Induction of immobilized actin-tubulin (unknown origin) protein-protein interaction by SPR analysis

Compound	IC50 [1] [nM]	Kd [2]	Ka [3]	Kd [4] [nM]	Kd [5] [nM]	inhibition [6] [%]	further results
COCC(C(=O)O[C@@H]1C/C=C/C=C/C(=O)O[C@H]([C@@H](C)[C@@H](O)[C@@H](C)CC[C@@H](OC(=O)C(C)N(C)C)[C@H](C)[C@H](OC(C)=O)[C@H](C)C/C=N/NC(=O)CCOCCOCCOCCOCCNC(=O)CCCC[C@@H]2SC[C@@H]3NC(=O)N[C@@H]32)C/C=C/[C@H](OC)C[C@H](C)C/C=C(\C)[C@@H](OC)CC[C@@H](C)[C@@H](O)[C@@H]1C)N(C)C (some centres not stated)	0.096	1.83 10^-2/s	4.54 10^3/M/s	4020			
CO[C@H]1CC[C@@H](C)[C@@H](O)[C@H](C)[C@H](O)C/C=C/C=C/C(=O)O[C@H]([C@@H](C)[C@@H](O)[C@@H](C)CC[C@@H](OC(=O)C(C)N(C)C)[C@H](C)[C@H](OC(C)=O)[C@H](C)C/C=N/NC(=O)CCOCCOCCOCCOCCNC(=O)CCCC[C@@H]2SC[C@@H]3NC(=O)N[C@@H]32)C/C=C/[C@H](OC)C[C@H](C)C/C=C/1C (some centres not stated)	700	1.51 10^-2/s	8.38 10^2/M/s	18000			
COC[C@@H](OC)C(=O)O[C@H](CC[C@H](C)[C@H](C[C@@H]1OC(=O)C[C@@H](O)C/C=C/C(=O)[C@H](C)[C@H](OC)c2coc(n2)-c2coc(n2)-c2coc(n2)/C=C/C[C@H](OC)[C@H]1C)OC)[C@H](C)[C@H](OC(C)=O)[C@H](C)/C=C/N(C)C=O					13	100	
CO[C@H]1CC[C@@H](C)[C@@H](O)[C@H](C)[C@H](O)C/C=C/C=C/C(=O)O[C@H]([C@@H](C)[C@@H](O)[C@@H](C)CC[C@@H](OC(=O)C(C)N(C)C)[C@H](C)[C@H](OC(C)=O)[C@H](C)/C=C/N(C)C=O)C/C=C/[C@H](OC)C[C@H](C)C/C=C/1C (some centres not stated) [APLYRONINE C]	17					100	
C/C1=C/C(=O)O[C@@H]2C[C@@H](CC[C@H](C)/C=C\C=C\CC1)O[C@@](O)([C@@H]1CSC(=O)N1)C2							Activity [7]: Active; Activity [8]: Active
COCC(C(=O)O[C@@H]1C/C=C/C=C/C(=O)O[C@H]([C@@H](C)[C@@H](O)[C@@H](C)CC[C@@H](OC(=O)C(C)N(C)C)[C@H](C)[C@H](OC(C)=O)[C@H](C)/C=C/N(C)C=O)C/C=C/[C@H](OC)C[C@H](C)C/C=C(\C)[C@@H](OC)CC[C@@H](C)[C@@H](O)[C@@H]1C)N(C)C (some centres not stated) [APLYRONINE A]	0.01				100	100	Kd [9]: 8.82 10^-2/s; Ka [10]: 3 10^6/M; Ka [11]: 4.78 10^4/M/s; TIME [12]: 0.265 h; Activity [13]: inactive; Kd [14]: 1840 nM; Activity [15]: 145 kDa; Activity [16]: Active; Activity [17]: inactive; Activity [18]: inactive

— ChEMBL document CHEMBL4715717, “Analysis of the aplyronine A-induced protein-protein interaction between actin and tubulin by surface plasmon resonance” (Bioorg Med Chem, 2016)
